Assay results taken from US8802597B2, “Herbicidal pyrimidines” (E I du Pont de Nemours and Company, priority 2003, dated 2014).

How the values were obtained:
Assay in all cases: Test G pre/postemergence
Type in all cases: in vivo
[1] = tested on: Russian thistle (Salsola kali)
How it was run: (§1)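 Pre- and postemergence greenhouse test; compound in non-phytotoxic solvent/surfactant mix. Post timing: 2–18 cm plants, 1- to 4-leaf. Visual rating vs controls at 12–21 d, 0 (no effect) to 100 (complete control).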

[2] = tested on: common groundsel (Senecio vulgaris)
How it was run: as §1

[3] = tested on: kochia (Kochia scoparia)
How it was run: as §1

[4] = Postemergence, 250 g ai/ha, scale 0 to 100
[5] = Postemergence, 16 g ai/ha, scale 0 to 100
[6] = Postemergence, 31 g ai/ha, scale 0 to 100
[7] = Postemergence, 62 g ai/ha, scale 0 to 100
[8] = Postemergence, 125 g ai/ha, scale 0 to 100
[9] = Preemergence, 16 g ai/ha, scale 0-100
[10] = Preemergence, 31 g ai/ha, scale 0-100
[11] = Preemergence, 62 g ai/ha, scale 0-100
[12] = Preemergence, 125 g ai/ha, scale 0-100
[13] = Preemergence, 250 g ai/ha, scale 0-100
[14] = Preemergence, 8 g ai/ha, scale 0-100
[15] = Postemergence, 8 g ai/ha, scale 0 to 100

Row | Compound | Plant response rating, Russian Thistle [1, 9] | Plant response rating, Russian Thistle [1, 10] | Plant response rating, Russian Thistle [1, 11] | Plant response rating, Russian Thistle [1, 13] | Plant response rating, Groundsel [2, 5] | Plant response rating, Groundsel [2, 6] | Plant response rating, Groundsel [2, 7] | Plant response rating, Groundsel [2, 8] | Plant response rating, Groundsel [2, 10] | Plant response rating, Groundsel [2, 13] | Plant response rating, Kochia [3, 4] | Plant response rating, Kochia [3, 5] | Plant response rating, Kochia [3, 6] | Plant response rating, Kochia [3, 7] | Plant response rating, Kochia [3, 8] | Plant response rating, Kochia [3, 9] | Plant response rating, Kochia [3, 10] | Plant response rating, Kochia [3, 11] | Plant response rating, Kochia [3, 12] | Plant response rating, Kochia [3, 13] | further results
1 | Nc1nc(C2CC2)nc(C(=O)OCc2ccccc2)c1Br [Compound 22, phenylmethyl 6-amino-5-bromo-2-cyclopropyl-4-pyrimidinecarboxylate] | 65 | 75 | 95 | 100 | 65 | 65 | 65 | 85 | 0 | 50 | 100 | 98 | 98 | 98 | 100 | 35 | 70 | 98 | 100 | 100 | Plant response rating, Russian Thistle [1, 4]: 100; Plant response rating, Russian Thistle [1, 5]: 95; Plant response rating, Russian Thistle [1, 6]: 100; Plant response rating, Russian Thistle [1, 7]: 100; Plant response rating, Russian Thistle [1, 8]: 100; Plant response rating, Russian Thistle [1, 12]: 100
2 | CCOC(=O)c1nc(-c2ccc(Cl)cc2)nc(N)c1Cl [Compound 64, ethyl 6-amino-5-chloro-2-(4-chlorophenyl)-4-pyrimidinecarboxylate] | – | 0 | 0 | – | 0 | 0 | 0 | – | 10 | – | – | 75 | 85 | 90 | – | 0 | 10 | 15 | – | – | Plant response rating, Russian Thistle [1, 14]: 0; Plant response rating, Groundsel [2, 15]: 0; Plant response rating, Groundsel [2, 14]: 0; Plant response rating, Groundsel [2, 9]: 0; Plant response rating, Groundsel [2, 11]: 40; Plant response rating, Kochia [3, 15]: 65; Plant response rating, Kochia [3, 14]: 0
3 | Nc1nc(C2CC2)nc(C(=O)[O-])c1Cl.[Na+] [Compound 77, 6-amino-5-chloro-2-cyclopropyl-4-pyrimidinecarboxylic acid monosodium salt] | 85 | – | 100 | 100 | 40 | 75 | 80 | 95 | 60 | 100 | 98 | 90 | 95 | 98 | 98 | 85 | 95 | 95 | 100 | 100 | Plant response rating, Groundsel [2, 4]: 100; Plant response rating, Groundsel [2, 9]: 50; Plant response rating, Groundsel [2, 12]: 80
